Where “and” joins values, the source holds several entries; their conditions need not be identical. Equal entries are not always repeated.
Tests used:
[1] = system: avoidance response; assay: Active avoidance test; assay type: in vivo; conditions: Rattus norvegicus; male Fischer 344 rats; oral, 60 minutes prior to the test; read-out: Inhibition of avoidance response (ED50)
Description: Effect of Treatment in Active Avoidance Test.
The administration of incremental doses of an antipsychotic drug in the rat causes inhibition of the active avoidance response and an increase in the number of escape responses without any increase in failures. This change in the animal's avoidance behaviour is characteristic of the effect of the administration of a compound endowed with anti-psychotic activity. Therefore, the evaluation of such behaviour enables us to detect and determine the antipsychotic capacity of a product.
Male Fischer 344 rats weighing 180 g (Charles River) were used.
To carry out the test to assess the avoidance behaviour of the rats a piece of equipment was used (Ugo Basile) consisting of a plastic cage divided into two compartments by a partition wall with an aperture in it allowing communication between the two sectors. Each of the two sectors can be illuminated by a 10 Watt lamp placed above a plexiglas lid covering the cage. A programming device allows the regulation of the duration and frequency of the unconditioned and discriminatory stimuli and a computerised system acquires the experimental data. […]
Before treatment with the study compounds, the animals were selected in relation to their ability to master the task. […] The results were expressed as means and standard errors.

[2] = system: catalepsy; assay: in vivo; conditions: male, Wistar, rat, po, Induction of catalepsy (ED50)
Description: Effect of Treatment in Catalepsy Test.
(§1) The test was carried out on male rats of the Wistar strain (n=7 animals); evaluation of catalepsy was done by means of a metal rod measuring 0.6 cm in diameter positioned at a distance of 10 cm from the work surface. […] Subsequent observations were recorded at 60, 90, 120, 180, 240, and 300 minutes after administration.

[3] = target: T1, cloned dopamine receptor subtype 3 (Rattus norvegicus, UniProt P19020); assay: Radioligand binding to D3 receptor (transfected Sf9 cell membranes, 3H-7-OH-DPAT)
T1 construct: purchased Signal Screen; host or cells: Sf9 cells
T1 sequence (P19020 whole entry): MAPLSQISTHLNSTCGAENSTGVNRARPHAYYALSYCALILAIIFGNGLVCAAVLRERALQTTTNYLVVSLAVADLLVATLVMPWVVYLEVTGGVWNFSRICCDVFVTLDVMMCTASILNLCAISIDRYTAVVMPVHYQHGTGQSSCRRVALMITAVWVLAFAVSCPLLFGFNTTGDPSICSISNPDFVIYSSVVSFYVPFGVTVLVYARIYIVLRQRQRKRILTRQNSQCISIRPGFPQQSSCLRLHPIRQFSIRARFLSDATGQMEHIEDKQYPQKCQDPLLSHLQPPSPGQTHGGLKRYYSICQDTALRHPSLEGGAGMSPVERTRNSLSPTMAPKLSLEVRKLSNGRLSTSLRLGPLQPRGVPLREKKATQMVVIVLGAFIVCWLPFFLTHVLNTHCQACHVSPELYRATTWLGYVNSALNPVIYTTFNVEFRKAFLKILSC
Description: (§2) For the D2 receptor ^3H-Spiperone (0.2 nM) was used and the non-specific binding was determined in the presence of 100 μM of (−)sulpiride. As regards the D3 receptor, the radioligand selected 3H-7-OH-DPAT was used at the concentration of 0.2 μM and the non-specific binding was obtained in the presence of dopamine 10 μM. Lastly, interaction with 5HT2a was evaluated using ^3H-ketanserin (0.7 μM) and the non-specific binding was determined in the presence of methysergide 1 μM.

[4] = target: T2, 5HT2a receptor (Rattus norvegicus, UniProt P14842); assay: Radioligand binding to 5HT2a receptor (prefrontal cortex, 3H-ketanserin)
T2 construct: using different cerebral areas (striate D1 and D2; prefrontal cortex 5HT2a); from tissue; host or cells: prefrontal cortex
T2 sequence (P14842 whole entry): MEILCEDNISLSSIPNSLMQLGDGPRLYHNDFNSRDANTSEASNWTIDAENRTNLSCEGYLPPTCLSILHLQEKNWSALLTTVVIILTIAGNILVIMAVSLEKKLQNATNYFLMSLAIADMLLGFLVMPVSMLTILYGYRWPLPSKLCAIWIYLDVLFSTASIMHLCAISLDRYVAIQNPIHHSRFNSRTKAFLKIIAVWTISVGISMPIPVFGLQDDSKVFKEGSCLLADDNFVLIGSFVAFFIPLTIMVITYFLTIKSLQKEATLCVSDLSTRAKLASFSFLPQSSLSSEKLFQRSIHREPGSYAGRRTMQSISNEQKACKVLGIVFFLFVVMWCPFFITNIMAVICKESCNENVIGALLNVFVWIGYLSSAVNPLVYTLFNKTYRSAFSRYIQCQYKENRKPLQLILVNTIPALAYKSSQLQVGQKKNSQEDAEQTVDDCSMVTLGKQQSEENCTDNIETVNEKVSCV
Description: as §2

[5] = target: D1 receptor (Rattus norvegicus, UniProt P18901)
Chain of D1 receptor (P18901 whole entry): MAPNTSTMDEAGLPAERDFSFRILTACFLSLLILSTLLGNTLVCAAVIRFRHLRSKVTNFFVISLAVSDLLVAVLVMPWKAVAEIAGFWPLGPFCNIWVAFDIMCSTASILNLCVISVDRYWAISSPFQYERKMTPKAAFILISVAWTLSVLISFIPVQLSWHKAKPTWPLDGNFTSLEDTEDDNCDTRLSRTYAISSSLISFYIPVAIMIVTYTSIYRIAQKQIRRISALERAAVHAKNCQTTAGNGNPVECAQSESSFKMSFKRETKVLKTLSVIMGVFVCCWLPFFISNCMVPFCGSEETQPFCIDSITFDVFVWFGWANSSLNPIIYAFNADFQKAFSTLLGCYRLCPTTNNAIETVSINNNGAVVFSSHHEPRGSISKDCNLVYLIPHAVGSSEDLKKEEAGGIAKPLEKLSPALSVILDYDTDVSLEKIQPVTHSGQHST
Description: as §2

[6] = system: catalepsy; conditions: rat, in vivo, po, 100 mg/kg
Description: Effect of Treatment in Catalepsy Test.
as §1

Row | Ki [3] [nM] | 5HT2A pKi [4] | Log Y ([4]; from relative affinity for 5HT2, D2 and D1, classic >6.48, atypical <6.48) | Ki ([4]; prefrontal cortex, 3H-ketanserin) [nM] | D1 pKi [5] | Ki ([5]; read-out: D1 (Ki: nM), striate, [3H]-SCH 23390) [nM] | SMILES | ED50 [1] | ED50 [2] | Presence of catalepsy [6]
1 | – | – | – | – | – | – | CN1CCN(C2=Nc3cc(Cl)ccc3Nc3ccccc32)CC1 [Clozapine, reference compound] | 4.9 mg/kg and 15 µmol/kg | 100 mg/kg and 276 µmol/kg | –
2 | 224 | 8.14 | 3.20 | 7.2 | 6.90 | 125 | CN1CCN(C2=Cc3ccccc3Cn3cccc32)CC1 [ST2329, 11-(4-Methylpiperazin-1-yl)-5H-pyrrolo[2,1-b][2]benzazepine] | 0.56 mg/kg and 2 µmol/kg | – | no presence of catalepsy was detected

From US20080293689A1, “Compounds with Atypical Antipsychotic Activity” (SIGMA-TAU INDUSTRIE FARMACEUTICHE RIUNITE S.P.A., priority 2004, published 2008)
